In brackets after ≈: the same amount, converted by molar mass.
Columns and labels:
Citrobacter freundii [1] = test: In vitro antibacterial activity against C. freundii(GC 2211) without preincubation in mouse serum; assay type: functional
[2] = target: T1, Dipeptidase 1 (Sus scrofa) (UniProt P22412); test: Relative hydrolysis by hog Dehydropeptidase; assay type: functional
T1 sequence (whole entry): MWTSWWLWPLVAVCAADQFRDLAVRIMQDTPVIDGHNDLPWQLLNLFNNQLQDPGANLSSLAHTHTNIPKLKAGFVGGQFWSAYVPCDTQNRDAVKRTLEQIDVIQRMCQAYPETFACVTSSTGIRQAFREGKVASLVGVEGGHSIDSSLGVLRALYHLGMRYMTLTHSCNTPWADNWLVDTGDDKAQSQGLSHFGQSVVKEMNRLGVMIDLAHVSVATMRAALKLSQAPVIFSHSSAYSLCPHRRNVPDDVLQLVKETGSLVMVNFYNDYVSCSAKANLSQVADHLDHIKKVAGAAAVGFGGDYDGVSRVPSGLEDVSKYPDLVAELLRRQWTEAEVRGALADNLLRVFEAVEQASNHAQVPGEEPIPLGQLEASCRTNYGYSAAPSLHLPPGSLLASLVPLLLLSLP

Enterobacter cloacae [3] = test: In vitro antibacterial activity against E. cloacae(GC 2209) without pre-incubation in mouse serum; assay type: functional
Enterococcus faecium [4] = test: In vitro for antibacterial activity against E. faecium(GC 1182) without pre-incubation in mouse serum; assay type: functional
Escherichia coli [5] = test: In vitro antibacterial activity expressed as MIC against Escherichia coli (ATCC 25922) without pre-incubation in mouse serum; assay type: functional
Escherichia coli [6] = test: In vitro antibacterial activity expressed as MIC against E. coli(GC 1792) without pre-incubation in mouse serum; assay type: functional
Escherichia coli [7] = test: In vitro antibacterial activity expressed as MIC against E. coli(GC 2205) without pre-incubation in mouse serum; assay type: functional
Mus musculus [8] = test: Antibacterial activity against Escherichia coli (311) infection in mice after single oral dose, activity expressed as ED50; assay type: functional
Mus musculus [9] = test: Antibacterial activity against Escherichia coli (311) infection in mice after single subcutaneous dose, activity expressed as ED50; assay type: functional; conditions: sc
Pseudomonas aeruginosa [10] = test: In vitro antibacterial activity against Pseudomonas aeruginosa (ATCC 27853) without pre-incubation in mouse serum; assay type: functional
Pseudomonas aeruginosa [11] = test: In vitro antibacterial activity against P. aeruginosa(GC 1544 oprd) without pre-incubation in mouse serum; assay type: functional
Staphylococcus aureus [12] = test: In vitro antibacterial activity against S. aureus(ATCC 29213) without pre-incubation in mouse serum; assay type: functional
Staphylococcus aureus [13] = test: In vitro antibacterial activity against S. aureus(GC 2220 MRSA) without pre-incubation in mouse serum; assay type: functional
[14] = test system: Acinetobacter calcoaceticus; test: In vitro antibacterial activity against Acinetobacter calcoaceticus (GC 756) without preincubation in mouse serum; assay type: functional
Morganella morganii [15] = test: In vitro antibacterial activity against M. morganii(GC 2213) without preincubation in mouse serum
Enterococcus faecalis [16] = test: In vitro antibacterial activity against E. faecalis(GC 842) without pre-incubation in mouse serum
[17] = test system: Stenotrophomonas maltophilia; test: In vitro antibacterial activity against X. maltophilia(GC 562) without pre-incubation in mouse serum
[18] = test system: Acinetobacter calcoaceticus; test: In vitro antibacterial activity against Acinetobacter calcoaceticus (GC 756) following preincubation in mouse serum; assay type: functional
Citrobacter freundii [19] = test: In vitro antibacterial activity against C. freundii(GC 2211) following pre-incubation in mouse serum; assay type: functional
Enterococcus faecalis [20] = test: In vitro antibacterial activity against E. faecalis(GC 842) without pre-incubation in mouse serum; assay type: functional
Enterococcus faecalis [21] = test: In vitro antibacterial activity against E. faecalis(GC 842) following pre-incubation in mouse serum; assay type: functional
Enterobacter cloacae [22] = test: In vitro antibacterial activity against E. cloacae(GC 2209) following preincubation in mouse serum; assay type: functional
Escherichia coli [23] = test: In vitro antibacterial activity expressed as MIC against Escherichia coli (ATCC 25922) following pre-incubation in mouse serum; assay type: functional
Escherichia coli [24] = test: In vitro antibacterial activity expressed as MIC against E. coli(GC 1792) following pre-incubation in mouse serum; assay type: functional
Escherichia coli [25] = test: In vitro antibacterial activity expressed as MIC against E. coli(GC 2205) following pre-incubation in mouse serum; assay type: functional
Morganella morganii [26] = test: In vitro antibacterial activity against M. morganii(GC 2213) following pre-incubation in mouse serum; assay type: functional
Morganella morganii [27] = test: In vitro antibacterial activity against M. morganii(GC 2213) without pre-incubation in mouse serum; assay type: functional
Pseudomonas aeruginosa [28] = test: In vitro antibacterial activity against Pseudomonas aeruginosa (ATCC 27853) following pre-incubation in mouse serum; assay type: functional
Staphylococcus aureus [29] = test: In vitro antibacterial activity against S aureus(ATCC 29213) following preincubation in mouse serum; assay type: functional
[30] = test system: Stenotrophomonas maltophilia; test: In vitro antibacterial activity against X. maltophilia(GC 562) without pre-incubation in mouse serum; assay type: functional
Staphylococcus aureus [31] = test: In vitro antibacterial activity against S. aureus(GC 2220 MRSA) following pre-incubation in mouse serum; assay type: functional
Pseudomonas aeruginosa [32] = test: In vitro antibacterial activity against P. aeruginosa(GC 1544 oprd) following pre-incubation in mouse serum; assay type: functional
[33] = test system: Stenotrophomonas maltophilia; test: In vitro antibacterial activity against X. maltophilia(GC 562) following pre-incubation in mouse serum; assay type: functional
Enterococcus faecium [34] = test: In vitro for antibacterial activity against E. faecium(GC 1182) following pre-incubation in mouse serum; assay type: functional

MIC (Citrobacter freundii [1]) [µg/mL]	Relative hydrolysis [2]	MIC (Enterobacter cloacae [3]) [µg/mL]	MIC (Enterococcus faecium [4]) [µg/mL]	MIC (Escherichia coli [5]) [µg/mL]	MIC (Escherichia coli [6]) [µg/mL]	MIC (Escherichia coli [7]) [µg/mL]	MIC (Pseudomonas aeruginosa [10]) [µg/mL]	MIC (Pseudomonas aeruginosa [11]) [µg/mL]	MIC (Staphylococcus aureus [12]) [µg/mL]	MIC (Staphylococcus aureus [13]) [µg/mL]	MIC [14] [µg/mL]	MIC [18] [µg/mL]	MIC (Citrobacter freundii [19]) [µg/mL]	MIC (Enterococcus faecalis [20]) [µg/mL]	MIC (Enterococcus faecalis [21]) [µg/mL]	MIC (Enterobacter cloacae [22]) [µg/mL]	MIC (Escherichia coli [23]) [µg/mL]	Compound	ED50 (Mus musculus [8]) [mg/kg]	ED50 (Mus musculus [9]) [mg/kg]	other results
> 128	11	> 128	> 128	32 (≈ 54.4 µM)	16 (≈ 27.2 µM)	20 (≈ 34 µM)	> 128	> 128	4 (≈ 6.8 µM)	128 (≈ 217 µM)	> 128	4 (≈ 6.8 µM)	0.25 (≈ 0.425 µM)	64 (≈ 109 µM)	2 (≈ 3.4 µM)	0.12 (≈ 0.204 µM)	< 0.06	CCOC(=O)OCOC(=O)C1=C(S[C@@H]2CCO[C@@H]2CNC(=O)OCOC(=O)C(C)C)[C@H](C)C2[C@@H]([C@@H](C)O)C(=O)N12 (stereo not given in full)	0.56	0.4	MIC (Escherichia coli [24]): 0.06 µg/mL (≈ 0.102 µM); MIC (Escherichia coli [25]): 0.06 µg/mL (≈ 0.102 µM); MIC (Morganella morganii [26]): 1 µg/mL (≈ 1.7 µM); MIC (Morganella morganii [27]): 128 µg/mL (≈ 217 µM); MIC (Pseudomonas aeruginosa [28]): 16 µg/mL (≈ 27.2 µM); MIC (Staphylococcus aureus [29]): 0.06 µg/mL (≈ 0.102 µM); MIC [30]: > 128 µg/mL; MIC (Staphylococcus aureus [31]): 4 µg/mL (≈ 6.8 µM); MIC (Pseudomonas aeruginosa [32]): 32 µg/mL (≈ 54.4 µM); MIC [33]: > 128 µg/mL; MIC (Enterococcus faecium [34]): 128 µg/mL (≈ 217 µM)
4	11	2	128	0.5	0.5	1	128	> 128	1	64	64	2	0.25	16	2	0.12	< 0.06	CCOC(=O)OCOC(=O)C1=C(S[C@@H]2CCO[C@@H]2CN)[C@H](C)C2[C@@H]([C@@H](C)O)C(=O)N12.Cl (stereo not given in full)	8.2	0.62	MIC (Escherichia coli [24]): < 0.06 µg/mL; MIC (Escherichia coli [25]): < 0.06 µg/mL; MIC (Morganella morganii [26]): 0.5 µg/mL; MIC (Morganella morganii [27]): 16 µg/mL; MIC (Pseudomonas aeruginosa [28]): 8 µg/mL; MIC (Staphylococcus aureus [29]): 0.03 µg/mL; MIC [30]: > 128 µg/mL; MIC (Staphylococcus aureus [31]): 2 µg/mL; MIC (Pseudomonas aeruginosa [32]): 32 µg/mL; MIC [33]: > 128 µg/mL; MIC (Enterococcus faecium [34]): 128 µg/mL
> 128	19	> 128	> 128	128 (≈ 208 µM)	> 128	1 (≈ 1.62 µM)	> 128	> 128	4 (≈ 6.49 µM)	64 (≈ 104 µM)	> 128	8 (≈ 13 µM)	0.5 (≈ 0.811 µM)	32 (≈ 51.9 µM)	2 (≈ 3.24 µM)	0.12 (≈ 0.195 µM)	0.06 (≈ 0.0973 µM)	CCOC(=O)OCOC(=O)C1=C(S[C@@H]2CCO[C@@H]2CNC(=O)OC(C)OC(=O)C(C)(C)C)[C@H](C)C2[C@@H]([C@@H](C)O)C(=O)N12 (stereo not given in full)	0.42	0.46	MIC (Escherichia coli [24]): 0.06 µg/mL (≈ 0.0973 µM); MIC (Escherichia coli [25]): 0.06 µg/mL (≈ 0.0973 µM); MIC (Morganella morganii [26]): 2 µg/mL (≈ 3.24 µM); MIC (Morganella morganii [27]): > 128 µg/mL; MIC (Pseudomonas aeruginosa [28]): 32 µg/mL (≈ 51.9 µM); MIC (Staphylococcus aureus [29]): 0.06 µg/mL (≈ 0.0973 µM); MIC [30]: > 128 µg/mL; MIC (Staphylococcus aureus [31]): 4 µg/mL (≈ 6.49 µM); MIC (Pseudomonas aeruginosa [32]): 64 µg/mL (≈ 104 µM); MIC [33]: > 128 µg/mL; MIC (Enterococcus faecium [34]): 64 µg/mL (≈ 104 µM)

Compound	MIC (Citrobacter freundii [1]) [µg/mL]	Relative hydrolysis [2]	MIC (Enterobacter cloacae [3]) [µg/mL]	MIC (Enterococcus faecium [4]) [µg/mL]	MIC (Escherichia coli [5]) [µg/mL]	MIC (Escherichia coli [6]) [µg/mL]	MIC (Escherichia coli [7]) [µg/mL]	MIC (Pseudomonas aeruginosa [10]) [µg/mL]	MIC (Pseudomonas aeruginosa [11]) [µg/mL]	MIC (Staphylococcus aureus [12]) [µg/mL]	MIC (Staphylococcus aureus [13]) [µg/mL]	MIC [14] [µg/mL]	MIC [18] [µg/mL]	MIC (Citrobacter freundii [19]) [µg/mL]	MIC (Enterococcus faecalis [20]) [µg/mL]	MIC (Enterococcus faecalis [21]) [µg/mL]	MIC (Enterobacter cloacae [22]) [µg/mL]	MIC (Escherichia coli [23]) [µg/mL]	ED50 (Mus musculus [8]) [mg/kg]	ED50 (Mus musculus [9]) [mg/kg]	other results
C[C@@H](O)[C@H]1C(=O)N2C(C(=O)O)=C(S[C@@H]3CCO[C@@H]3CN)[C@H](C)[C@H]12	< 0.06	8.5	< 0.06	64 (≈ 187 µM)	< 0.06	< 0.06	< 0.06	8 (≈ 23.4 µM)	16 (≈ 46.7 µM)	< 0.06	1 (≈ 2.92 µM)	2 (≈ 5.84 µM)	–	–	–	–	–	–	3.8	0.34	MIC (Morganella morganii [15]): 0.5 µg/mL (≈ 1.46 µM); MIC (Enterococcus faecalis [16]): 0.5 µg/mL (≈ 1.46 µM); MIC [17]: > 128 µg/mL

Source: ChEMBL document CHEMBL1130478, “Mono and bis double ester prodrugs of novel aminomethyl-THF 1-methylcarbapenems” (Bioorg Med Chem Lett, 1997)
